According to patent publication US20140228312A1, “ANTIBIOTIC COMPOSITION AND ITS USES” (Agency for Science, Technology and Research, priority 2011, published 2014):

Legend:
[1] = test system: B. cereus; experiment: MIC assay, antibiotic with or without DSF-family molecules; assay type: cell-based, Bacillus cereus; settings: for MIC of Gentamicin, Mean: gentamicin alone (MeOH control, no DSF-family molecule)
Protocol: (§1) Minimum inhibitory concentration (MIC) was determined according to the 2003 guidelines of Clinical and Laboratory Standards Institute (CLSI) using 96-well microtiter plates. The two-fold dilution series of antibacterial agents or antibiotics were prepared with distilled water, methanol, or dimethyl sulfoxide (DMSO). Overnight cultures of bacteria were inoculated at an OD600 of 0.025 in Luria-Bertani (LB) broth supplemented with the respective antibiotic in the absence or presence of DSF-family molecules (Table 1). One hundred microliters of inoculated culture were grown in each well at 37° C. with shaking at 150 rpm for 24 hours. MIC was defined as the lowest concentration of antibiotic in which bacterial growth in the well was not measureable by determination of the turbidity at 600 nm.

[2] = test system: B. cereus; experiment: Bacterial growth analysis (Bioscreen-C); assay type: cell-based, Bacillus cereus; settings: final concentration of 50 μM, no antibiotic
Protocol: (§2) Overnight bacterial cultures grown in LB broth was inoculated in the same medium to an OD600 of 0.025; the medium was supplemented with a respective antibiotic and DSF-family signals were added in a final concentration of 50 μM or otherwise indicated. Three hundred microliters of inoculated culture were grown in each well at 37° C. in a low intensity shaking model using the Bioscreen-C Automated Growth Curves Analysis System (OY Growth Curves AB Ltd, Finland).

[3] = test system: B. thuringiensis; experiment: MIC assay, antibiotic with or without DSF; assay type: cell-based, Bacillus thuringiensis; settings: DSF 50 μM
Protocol: as §1

[4] = test system: N. subflava; experiment: MIC assay, antibiotic with or without DSF; assay type: cell-based, Neisseria subflava; settings: DSF 50 μM
Protocol: as §1

[5] = test system: S. aureus; experiment: MIC assay, antibiotic with or without DSF; assay type: cell-based, Staphylococcus aureus; settings: DSF 50 μM
Protocol: as §1

[6] = test system: M. smegmatis; experiment: MIC assay, antibiotic with or without DSF; assay type: cell-based, Mycobacterium smegmatis; settings: DSF 50 μM
Protocol: as §1

[7] = test system: P. aeruginosa strain PAO1; experiment: Bacterial growth analysis (Bioscreen-C); assay type: cell-based, Pseudomonas aeruginosa
Protocol: as §2
P. aeruginosa is a major source of opportunistic infections in both immunocompromised individuals and cystic fibrosis patients (Bodey et al., 1983; Richards et al., 2000). It appeared to be less responsive to DSF than other tested bacterial pathogen in our preliminary MIC assay. We therefore used the Bioscreen-C Automated Growth Curves Analysis System to determine the synergistic effect of DSF with antibiotics. Gentamicin and kanamycin were added to the culture of P. aeruginosa strain PAO1 at a final concentration of 2 nM and 0.2 μM, respectively, in the absence and presence of 50 μM DSF.

[8] = 50 μM DSF-family molecule vs MeOH control

## CCCCC/C=C\C(=O)O [Compound C8]
[1]; [8]
  Fold Change of MIC of Ampicillin: 0
  Fold Change of MIC of Kanamycin: 2
  Fold Change of MIC of Rifampicin: 2
  Fold change of MIC of Gentamicin: 0

## CCCCCCC/C=C\C(=O)O [Compound C10]
[1]; [8]
  Fold Change of MIC of Ampicillin: 0
  Fold Change of MIC of Kanamycin: 4
  Fold Change of MIC of Rifampicin: 2.6
  Fold change of MIC of Gentamicin: 2

## CCCCCCCC/C=C\C(=O)O [Compound C11]
[1]; [8]
  Fold Change of MIC of Kanamycin: 16
  Fold Change of MIC of Rifampicin: 4
  Fold change of MIC of Gentamicin: 16

## CCCCCCCCC/C=C\C(=O)O [Compound C12]
[1]; [8]
  Fold Change of MIC of Ampicillin: 0
  Fold Change of MIC of Kanamycin: 4
  Fold Change of MIC of Rifampicin: 2.6
  Fold change of MIC of Gentamicin: 8
[2]
  effect on bacterial growth rate: did not affect the bacterial growth rate

## CCCCCCCCCC/C=C\C(=O)O [Compound C13]
[1]; 5 μM C13 vs MeOH
  Fold Change of MIC of Kanamycin: 2
  Fold change of MIC of Gentamicin: 0
[1]; 10 μM C13 vs MeOH
  Fold Change of MIC of Kanamycin: 2
  Fold change of MIC of Gentamicin: 2
[1]; 20 μM C13 vs MeOH
  Fold Change of MIC of Kanamycin: 8
  Fold change of MIC of Gentamicin: 4
[1]; 30 μM C13 vs MeOH
  Fold Change of MIC of Kanamycin: 8
  Fold change of MIC of Gentamicin: 8
[1]; 40 μM C13 vs MeOH
  Fold Change of MIC of Kanamycin: 16
  Fold change of MIC of Gentamicin: 21.3
[1]; 50 μM C13 vs MeOH
  Fold Change of MIC of Kanamycin: 16
  Fold change of MIC of Gentamicin: 32
[1]; [8]
  Fold Change of MIC of Ampicillin: 0
  Fold Change of MIC of Kanamycin: 16
  Fold Change of MIC of Rifampicin: 2.6
  Fold change of MIC of Gentamicin: 32
[2]
  effect on bacterial growth rate: did not affect the bacterial growth rate

## CCCCCCCCCCC/C=C\C(=O)O [Compound C14]
[1]; [8]
  Fold Change of MIC of Ampicillin: 0
  Fold Change of MIC of Kanamycin: 32
  Fold Change of MIC of Rifampicin: 2
  Fold change of MIC of Gentamicin: 32

## CCCCCCCCCCCC/C=C\C(=O)O [Compound C15]
[1]; 50 μM DSF-family molecule
  drug adjuvant with ampicillin: best drug adjuvant with ampicillin
[1]; [8]
  Fold Change of MIC of Kanamycin: 32
  Fold Change of MIC of Rifampicin: 4
  Fold change of MIC of Gentamicin: 128

## CCCCCCCCCCCC(=O)O [Compound S12]
[1]; [8]
  Fold Change of MIC of Ampicillin: 0
  Fold Change of MIC of Kanamycin: 8
  Fold Change of MIC of Rifampicin: 2
  Fold change of MIC of Gentamicin: 4

## CCCCC/C=C/C(=O)O [Compound T8]
[1]; [8]
  Fold Change of MIC of Ampicillin: 0
  Fold Change of MIC of Kanamycin: 2
  Fold Change of MIC of Rifampicin: 0
  Fold change of MIC of Gentamicin: 0

## CCCCCCC/C=C/C(=O)O [Compound T10]
[1]; [8]
  Fold Change of MIC of Ampicillin: 0
  Fold Change of MIC of Kanamycin: 4
  Fold Change of MIC of Rifampicin: 2
  Fold change of MIC of Gentamicin: 2

## CCCCCCCC/C=C/C(=O)O [Compound T11]
[1]; [8]
  Fold Change of MIC of Kanamycin: 8
  Fold Change of MIC of Rifampicin: 2.6
  Fold change of MIC of Gentamicin: 16

## CCCCCCCCC/C=C/C(=O)O [Compound T12]
[1]; [8]
  Fold Change of MIC of Ampicillin: 0
  Fold Change of MIC of Kanamycin: 16
  Fold Change of MIC of Rifampicin: 1.3
  Fold change of MIC of Gentamicin: 21.3

## CCCCCCCCCC/C=C/C(=O)O [Compound T13]
[1]; [8]
  Fold Change of MIC of Ampicillin: 0
  Fold Change of MIC of Kanamycin: 5.3
  Fold Change of MIC of Rifampicin: 2
  Fold change of MIC of Gentamicin: 8

## CCCCCCCCCCC/C=C/C(=O)O [Compound T14]
[1]; 50 μM DSF-family molecule
  synergistic activity with kanamycin: strongest synergistic activity
[1]; [8]
  Fold Change of MIC of Kanamycin: 64
  Fold Change of MIC of Rifampicin: 1.3
  Fold change of MIC of Gentamicin: 128

## CCCCCCCCCCCC/C=C/C(=O)O [Compound T15]
[1]; [8]
  Fold Change of MIC of Ampicillin: 0
  Fold Change of MIC of Kanamycin: 2
  Fold Change of MIC of Rifampicin: 2
  Fold change of MIC of Gentamicin: 0

## CC(C)CCCCCCC/C=C\C(=O)O [DSF, cis 11-methyl-2-dodecenoic acid]
[1]; 5 μM DSF vs MeOH
  Fold Change of MIC of Kanamycin: 1.3
  Fold change of MIC of Gentamicin: 2
[1]; 10 μM DSF vs MeOH
  Fold Change of MIC of Kanamycin: 2
  Fold change of MIC of Gentamicin: 2
[1]; 20 μM DSF vs MeOH
  Fold Change of MIC of Kanamycin: 2
  Fold change of MIC of Gentamicin: 5.3
[1]; 30 μM DSF vs MeOH
  Fold Change of MIC of Kanamycin: 5.3
  Fold change of MIC of Gentamicin: 8
[1]; 40 μM DSF vs MeOH
  Fold Change of MIC of Kanamycin: 5.3
  Fold change of MIC of Gentamicin: 16
[1]; 50 μM DSF vs MeOH
  Fold Change of MIC of Kanamycin: 16
  Fold change of MIC of Gentamicin: 16
[1]; [8]
  Fold Change of MIC of Ampicillin: 0
  Fold Change of MIC of Kanamycin: 16
  Fold Change of MIC of Rifampicin: 2
  Fold change of MIC of Gentamicin: 16
[3]
  decrease of MIC of ampicillin: 75%
  decrease of MIC of gentamicin: 93.75%
  decrease of MIC of kanamycin: 93.75%
  decrease of MIC of rifampicin: 75%
[4]
  effect on MIC of ampicillin: did not affect
  effect on MIC of rifampicin: did not affect
  reduction of MIC of gentamicin: about 50%
  reduction of MIC of kanamycin: about 50%
[5]
  reduction of MIC of ampicillin: 50%
  reduction of MIC of gentamicin: 50%
  reduction of MIC of kanamycin: 50%
[6]
  enhancement of susceptibility to gentamicin: 50%
  enhancement of susceptibility to kanamycin: 25%
  enhancement of susceptibility to trimethoprim: 50%
[2]
  effect on bacterial growth rate: did not affect the bacterial growth rate
[7]; 50 μM DSF + gentamicin 2 nM
  effect on susceptibility to gentamicin: enhanced the susceptibility
[7]; 50 μM DSF + gentamicin 2 nM vs gentamicin alone
  delay of bacterial growth: 6 h
[7]; 50 μM DSF + kanamycin 0.2 μM
  effect on susceptibility to kanamycin: enhanced the susceptibility
[7]; 50 μM DSF + kanamycin 0.2 μM vs kanamycin alone
  delay of bacterial growth: 8 h
[7]; 50 μM DSF, no antibiotic
  effect on growth rate: did not affect the growth rate

## NC[C@H]1O[C@H](O[C@H]2[C@H](O)[C@@H](O[C@H]3O[C@H](CO)[C@@H](O)[C@H](N)[C@H]3O)[C@H](N)C[C@@H]2N)[C@H](O)[C@@H](O)[C@@H]1O [Kanamycin, kanamycin, reference compound]
[7]; kanamycin 0.2 μM alone
  time of recovery of bacterial growth: 22 hour post inoculation

## gentamicin [reference compound]
[1]
  MIC of Gentamicin, Mean: 8 µg/mL
[1]; listed as gentamicin
  MIC of Gentamicin, Mean: 8.0 µg/mL
[7]; gentamicin 2 nM alone
  time of recovery of bacterial growth: 10 hour post inoculation
